Reference: patent US12441768B2, “Compositions and methods for treating endometriosis” (EndoMet Biosciences, Inc., priority 2018, dated 2025)
*1 amine or outer side, *2 acyl side, *3 side chain or, on linkers, in order; H or OH if unused. Where a SMILES comes first, the peptide text is derived from it. Bridges are numbered along the chain shown (N, C = ends). [ ]: non-standard residue; d: D form. Glutaryl = O=C(CCCC(=O)[*:2])[*:1]; NMeNva = CCC[C@H](NC)C(=O)O

Biological target: T1, β-catenin (Homo sapiens, UniProt P35222)
T1 sequence (P35222 1-781): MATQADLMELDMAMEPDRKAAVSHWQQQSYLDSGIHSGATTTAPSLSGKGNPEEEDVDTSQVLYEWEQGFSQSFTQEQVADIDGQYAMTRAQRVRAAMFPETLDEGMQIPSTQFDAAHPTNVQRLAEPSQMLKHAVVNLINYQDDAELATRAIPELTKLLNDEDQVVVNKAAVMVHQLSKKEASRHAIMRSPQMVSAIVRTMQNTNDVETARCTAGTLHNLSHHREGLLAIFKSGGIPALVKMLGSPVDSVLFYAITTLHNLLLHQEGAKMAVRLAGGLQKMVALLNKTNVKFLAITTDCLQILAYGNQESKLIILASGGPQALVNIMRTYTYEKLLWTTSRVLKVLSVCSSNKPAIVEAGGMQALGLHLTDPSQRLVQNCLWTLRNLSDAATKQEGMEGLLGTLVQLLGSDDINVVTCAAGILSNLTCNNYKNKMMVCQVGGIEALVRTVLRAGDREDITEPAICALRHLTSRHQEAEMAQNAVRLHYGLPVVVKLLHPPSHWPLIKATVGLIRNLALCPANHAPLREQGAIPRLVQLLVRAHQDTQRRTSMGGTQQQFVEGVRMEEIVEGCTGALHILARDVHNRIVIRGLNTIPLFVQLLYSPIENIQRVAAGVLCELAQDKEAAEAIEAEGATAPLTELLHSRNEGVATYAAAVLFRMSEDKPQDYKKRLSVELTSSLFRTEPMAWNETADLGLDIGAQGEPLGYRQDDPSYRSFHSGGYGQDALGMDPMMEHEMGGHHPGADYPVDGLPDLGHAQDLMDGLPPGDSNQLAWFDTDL
Assay: KD50 measurement using competitive fluorescence polarization (FP) with labelled TCF4
Assay type: binding
Settings: for Kd / β-Cat FP Hill slope: fluorescence polarization, β-catenin; for Kd: read-out: β-Cat FP KD
Excerpt: Fluorescence polarization (FP) is another method used to analyze protein-ligand interactions. This methodology measures the change in fluorescence light emitted by a labelled compound free vs. conjugated to another compound in solution. Upon binding of the fluorescent molecule to a complex, polarization increases because of limited rotation of the fluorescent tracer. Competitive FP is often utilized in drug screens as it is formatted for high throughput screens in a plate format. This immunoassay is performed by introducing a non-conjugated drug to compete for binding to the labelled competitor-ligand complex, leading to a reduction in polarization. TCF4 protein is utilized for the competitive assay as (1) this protein influences the full activation of the Wnt pathway and (2) shares homology with the β-catenin inhibitors. Exemplary methodology is described in Example 13. Data were analyzed and plotted in Microsoft Excel (Microsoft, Redmond, WA).
5 nM of labelled TCF4 protein was added to solution of 100 nM of β-catenin and incubated at room temperature in 96-well plates (Greiner 96 Flat transparent plates, Millipore Sigma, Carlsbad CA). Varying concentrations of β-catenin inhibitor candidate (SEQ ID NO: 404) were then added in a series of serial dilutions from 10 nM to 30 uM of inhibitor in different wells of the plate. The fluorescence polarization was read by Infinite M1000 (Tecan, Baldwin Park CA) at excitation wavelength of 470 nm and measured at emission wavelength of 520 nm. […] The experiments were performed three times and data were analyzed and plotted in Microsoft Excel (Microsoft, Redmond, WA).

SMILES	Kd [µM]	β-Cat FP Hill slope	Binding to β-catenin (fluorescence polarization) (5 nM labelled TCF4, 100 nM β-catenin, 10 nM to 30 uM inhibitor)
CCCCCCCCCCCCCCCCCC(=O)N[C@@H](Cc1c[nH]c2ccccc12)C(=O)N(C)[C@@H](Cc1c[nH]c2ccccc12)C(=O)N[C@@H](CCC(=O)O)C(=O)NC(C)(CO)C(=O)N[C@H](C(=O)N[C@@H](CC(C)C)C(=O)N[C@@H](CC(=O)O)C(=O)N[C@@H](CCC(=O)O)C(=O)N[C@@H](Cc1c[nH]cn1)C(=O)NC(C)(C(=O)N[C@@H](CCC(N)=O)C(=O)N[C@@H](CCCNC(=N)N)C(=O)N[C@H](C(=O)N[C@@H](Cc1c[nH]c2ccccc12)C(=O)O)C(C)C)C(C)C)[C@@H](C)CC (single isomer, unassigned) [SEQ ID NO: 393/500, Stearyl-W-NmeW-E-aMeS-ILDEH-aMeV-QRVW-COOH]	> 30	–	–
CC[C@H](NC(=O)[C@@H](NC(=O)[C@H](CC(C)C)NC(=O)[C@H](CC1CCCCC1)NC(=O)[C@H](Cc1c[nH]c2ccccc12)NC(=O)[C@H](CCCCN)NC(=O)COCCOCCNC(=O)[C@H](CCCNC(=N)N)NC(=O)[C@H](CCCNC(=N)N)NC(=O)[C@H](CCCNC(=N)N)NC(=O)[C@H](CCC(N)=O)NC(=O)[C@H](CCCNC(=N)N)NC(=O)[C@H](CCCNC(=N)N)NC(=O)[C@H](CCCCN)NC(=O)[C@H](CCCCN)NC(=O)[C@@H](N)CCCNC(=N)N)[C@@H](C)CC)C(=O)N[C@@H](C)C(=O)N[C@@H](Cc1c[nH]c2ccccc12)C(=O)N[C@@H](CC(=O)O)C(=O)O [282/493] (HELM PEPTIDE1{R.K.K.R.R.Q.R.R.R.[O=C(COCCOCCN[*:1])[*:2]].K.W.[Cha].L.I.[Abu].A.W.D}$$$$V2.0)	–	0.77	–
CC[C@H](C)[C@@H]1NC(=O)[C@@H](NC(=O)[C@H](CCC(N)=O)NC(=O)[C@H](C)N(C)C(=O)[C@H](Cc2c[nH]c3ccccc23)NC(C)=O)CCCCNC(=O)CC[C@@H](C(=O)N[C@@H](Cc2c[nH]cn2)C(=O)N[C@H](C(=O)N[C@@H](CCC(N)=O)C(=O)N[C@@H](CCCNC(=N)N)C(=O)N[C@H](C(=O)N[C@@H](Cc2c[nH]c3ccccc23)C(=O)NCC(N)=O)C(C)C)C2CCCCC2)NC(=O)[C@H](CC(=O)O)NC(=O)[C@H](CC(C)C)NC1=O [SEQ ID NO: 404, cyclo-AcNH-W-NmeA-QK*ILDE*H-Chg-QRVWG-NH2] (HELM PEPTIDE1{[ac].W.[meA].Q.K.I.L.D.E.H.[O=C([C@@H](N[*:1])C1CCCCC1)[*:2]].Q.R.V.W.G.[am]}$PEPTIDE1,PEPTIDE1,5:R3-9:R3$$$V2.0)	–	–	binds β-catenin in a concentration-dependent manner
CCC[C@H]1C(=O)N[C@@H](CCC(N)=O)C(=O)N[C@@H](CO)C(=O)N[C@@H](CC(C)C)C(=O)N[C@@H](Cc2ccccc2)C(=O)N(C)[C@@H](CCC)C(=O)N2CCC[C@H]2C(=O)N2CCC[C@H]2C(=O)N(C)[C@@H](CCC)C(=O)N[C@H](C(N)=O)CCCCNC(=O)CCCC(=O)N[C@@H](CCSC)C(=O)N[C@@H](CCSC)C(=O)N1C [compound 3] (MM[NMeNva]QSLF[NMeNva]PP[NMeNva]K-NH2; linker N-12 via Glutaryl)	10 to 30	0.98	–
CCC[C@H]1C(=O)N[C@@H](Cc2c[nH]c3ccccc23)C(=O)N[C@@H](CC(C)C)C(=O)N[C@@H](CO)C(=O)N[C@@H](CCCNC(=N)N)C(=O)N[C@@H](CCC(N)=O)C(=O)N[C@@H](Cc2c[nH]c3ccccc23)C(=O)N[C@@H]([C@@H](C)CC)C(=O)N[C@@H](C(C)C)C(=O)N[C@H](C(N)=O)CCCCNC(=O)CCCC(=O)N[C@@H](CCSC)C(=O)N[C@@H](Cc2c[nH]c3ccccc23)C(=O)N1C [compound 5] (HELM PEPTIDE1{M.W.[CCC[C@@H](C(=O)[*:2])N(C)[*:1]].W.L.S.R.Q.W.I.V.K.[am]}|CHEM1{[O=C(CCCC(=O)[*:2])[*:1]]}$PEPTIDE1,CHEM1,1:R1-1:R1|PEPTIDE1,CHEM1,12:R3-1:R2$$$V2.0)	1 to 10	0.5	–
CC[C@H](C)[C@H](NC(=O)[C@H](CC(C)C)NC(=O)[C@H](Cc1ccccc1)NC(=O)[C@H](Cc1c[nH]c2ccccc12)NC(=O)[C@H](CCSC)NC(=O)[C@H](CCCNC(=N)N)NC(=O)[C@H](CO)NC(=O)[C@@H](N)CCSC)C(=O)N[C@@H](CO)C(=O)N[C@@H](Cc1ccccc1)C(=O)N[C@@H](Cc1c[nH]c2ccccc12)C(=O)N[C@@H](CCCCN)C(N)=O [compound 6] (H-MSRMWFLISFWK-NH2)	> 30	–	–
CC[C@H](C)[C@H](NC(=O)[C@H](CC(C)C)NC(=O)[C@H](Cc1ccccc1)NC(=O)[C@H](Cc1c[nH]c2ccccc12)NC(=O)[C@@H](N)CCSC)C(=O)N[C@@H](CO)C(=O)N[C@@H](Cc1ccccc1)C(=O)N[C@@H](Cc1c[nH]c2ccccc12)C(=O)N[C@@H](C)C(=O)O [compound 7] (H-MWFLISFWA-OH)	10 to 30	0.5	–
CC[C@H](C)[C@H](NC(=O)[C@H](CC(C)C)NC(=O)[C@H](Cc1ccccc1)NC(=O)[C@H](Cc1c[nH]c2ccccc12)NC(=O)[C@@H](N)CCSC)C(=O)N[C@@H](CO)C(=O)N[C@@H](Cc1ccccc1)C(=O)N[C@@H](C)C(=O)NCC(=O)O [compound 8] (H-MWFLISFAG-OH)	1 to 10	1.7	–
CC[C@H](C)[C@H](NC(=O)[C@H](CC(C)C)NC(=O)[C@H](Cc1ccccc1)NC(=O)[C@H](Cc1c[nH]c2ccccc12)NC(=O)[C@@H](N)CCSC)C(=O)N[C@@H](CO)C(=O)N[C@@H](C)C(=O)N[C@@H](Cc1c[nH]c2ccccc12)C(=O)NCC(=O)O [compound 9] (H-MWFLISAWG-OH)	1 to 10	0.51	–
CC[C@H](C)[C@H](NC(=O)[C@H](CC(C)C)NC(=O)[C@H](Cc1ccccc1)NC(=O)[C@H](Cc1c[nH]c2ccccc12)NC(=O)[C@@H](N)CCSC)C(=O)N[C@@H](C)C(=O)N[C@@H](Cc1ccccc1)C(=O)N[C@@H](Cc1c[nH]c2ccccc12)C(=O)NCC(=O)O [compound 10] (H-MWFLIAFWG-OH)	1 to 10	0.73	–
CSCC[C@H](N)C(=O)N[C@@H](Cc1c[nH]c2ccccc12)C(=O)N[C@@H](Cc1ccccc1)C(=O)N[C@@H](CC(C)C)C(=O)N[C@@H](C)C(=O)N[C@@H](CO)C(=O)N[C@@H](Cc1ccccc1)C(=O)N[C@@H](Cc1c[nH]c2ccccc12)C(=O)NCC(=O)O [compound 11] (H-MWFLASFWG-OH)	0.4 to 1	1.31	–
CC[C@H](C)[C@H](NC(=O)[C@H](C)NC(=O)[C@H](Cc1ccccc1)NC(=O)[C@H](Cc1c[nH]c2ccccc12)NC(=O)[C@@H](N)CCSC)C(=O)N[C@@H](CO)C(=O)N[C@@H](Cc1ccccc1)C(=O)N[C@@H](Cc1c[nH]c2ccccc12)C(=O)NCC(=O)O [compound 12] (H-MWFAISFWG-OH)	1 to 10	0.5	–
CC[C@H](C)[C@H](NC(=O)[C@H](CC(C)C)NC(=O)[C@H](C)NC(=O)[C@H](Cc1c[nH]c2ccccc12)NC(=O)[C@@H](N)CCSC)C(=O)N[C@@H](CO)C(=O)N[C@@H](Cc1ccccc1)C(=O)N[C@@H](Cc1c[nH]c2ccccc12)C(=O)NCC(=O)O [compound 13] (H-MWALISFWG-OH)	0.4 to 1	0.86	–
CC[C@H](C)[C@@H]1NC(=O)[C@H](CC(C)C)NC(=O)[C@H](Cc2ccccc2)NC(=O)[C@H](Cc2c[nH]c3ccccc23)NC(=O)[C@@H](N)CCCCNC(=O)CC[C@@H](C(=O)O)NC(=O)[C@H](Cc2c[nH]c3ccccc23)NC(=O)[C@H](Cc2ccccc2)NC(=O)[C@H](CO)NC1=O [compound 226] (HELM PEPTIDE1{K.W.F.L.I.S.F.W.E}$PEPTIDE1,PEPTIDE1,1:R3-9:R3$$$V2.0)	1 to 10	0.69	–
CC[C@H](C)[C@@H]1NC(=O)[C@H](CC(C)C)NC(=O)[C@H](Cc2ccccc2)NC(=O)[C@H](Cc2c[nH]c3ccccc23)NC(=O)[C@@H](N)CCCCNC(=O)CC[C@@H](C(=O)NCC(=O)O)NC(=O)[C@H](Cc2ccccc2)NC(=O)[C@H](CO)NC1=O [compound 227] (HELM PEPTIDE1{K.W.F.L.I.S.F.E.G}$PEPTIDE1,PEPTIDE1,1:R3-8:R3$$$V2.0)	1 to 10	0.5	–
